Results on three compounds are retold here after patent US11896564B2, “Medical treatment for pathologic inflammation” (PHARMACYL AB, priority 2018, dated 2024).

The subject of assay [1] is DSS-induced acute colitis in Balb/c mice. As to the kind of experiment: Dextran sulfate sodium (DSS)-induced acute colitis, disease activity index. The conditions noted are these: day 5. The format is in vivo. How it is done: The experiment was performed using 6-8-week-old female Balb/c mice after a one-week acclimatization period. The mice weighed 18-25 g, were purchased from Taconic (Denmark) and were maintained in a temperature and light-controlled facility with free access to standard rodent chow and water. Mice were randomized to the respective groups five days before start of treatment and were kept 5 to 6 animals per cage. […] The DSS intake was assessed daily.
SASP (from Sigma-Aldrich, Sweden) was first dissolved in 0.2 M sodium hydroxide (NaOH) at a concentration higher than the required final concentration. Phosphate buffered saline (PBS) was added to the desired concentration and the pH was adjusted to 7.5-8.0 with NaOH or hydrochloric acid. SASP remained completely dissolved at this pH. Cpd A hydrochloride was dissolved in PBS to the desired concentration.
All animal groups had free access to 5% DSS water solution for the entire test period. Treatments were administered from day 0 to day 5, either orally by gavage (SASP) or intraperitoneally (Cpd A), and in an administration volume of 5 ml/kg, twice daily with approximately an 8-hour interval. The control group (DSS only) received water (0.2 ml) orally twice daily. The parameters recorded in the experiment were stool consistency (0, normal; 2, loose stools; 4, watery diarrhoea), occurrence of blood in the stool (0, normal; 2, Hemoccult+; 4, gross bleeding), and body weight loss (0, none; 1, 1-5%; 2, 5-10%; 3, 10-20%; 4, >20%). Disease activity index (DAI) was calculated by summarizing the scores of these three parameters. Also the colon length and the colonic content of myeloperoxidase (MPO) were recorded. Data was statistically evaluated with analysis of variance (ANOVA). Least-squares means (LS means), and standard error (SE) of LS means were calculated.

The test system of assay [2] is LPS-induced TNF-α production in RAW264.7 murine macrophage cells. As to the kind of experiment: Suppression of LPS-induced TNF-α production in RAW264.7 macrophages (ELISA). It is filed as cell-based. The conditions noted are these: Mus musculus; 1 mM test substance; LPS 1 μg/ml; RAW264.7 cells. The text has this:
UC is an inflammatory disease characterized by the infiltration of inflammatory cells, such as macrophages, into the lesioned colon. Macrophages serve a critical role in the initiation and propagation of inflammatory responses by releasing proinflammatory mediators, such as TNF-α. Lipopolysaccharide (LPS) is a potent initiator of an inflammatory response. During LPS stimulation, NF-κB signaling is activated to regulate the transcription of numerous genes involved in immunity and inflammation to produce proinflammatory cytokines, such as TNF-α. Suppression of LPS-induced TNF-α production in RAW264.7 macrophages treated with AABZ was investigated by evaluation of the generation of TNF-α. The aim of this study was to evaluate the anti-inflammatory activity of AABZ.
The RAW264.7 macrophage line was maintained in DMEM supplemented with 5% FBS at 37° C. in a 5% […] air environment. The RAW264.7 cells were seeded in 96-well plates at a density of 1×10^5/ml and a volume of 200 μl/well. […] The supernatants were subsequently harvested at various time points and production of the proinflammatory cytokine TNF-α in the culture medium was determined using a commercially available enzyme-linked immunosorbent assay (ELISA) kit according to the manufacturer's protocol. […]
Background: In an ELISA, binding on a coated surface is turned into a signal by an enzyme label.

Counter-ions that a name gives are not always drawn.

For the compound `O=C(O)c1cc(/N=N/c2ccc(S(=O)(=O)Nc3ccccn3)cc2)ccc1O` [SASP, sulfasalazine], in assay [1] (SASP 20 mg/kg/day bid po), the “Disease Activity Index LS means ± SE” value worked out at 6.4 ± 0.5 and the “Percent Reduction of Score (Disease Activity Index) vs control” value came out at 8%. The “Percent Reduction of Score (Disease Activity Index) vs control” value in assay [1] (SASP 40 mg/kg/day bid po) came out at 36%.

With `CCN(CC)CCNC(=O)c1ccc(NC(C)=O)c(Cl)c1` [Cpd A, 4-Acetamido-3-chloro-N-[2-(diethylamino)ethyl]benzamide hydrochloride], the “Percent Reduction of Score (Disease Activity Index) vs control” value in assay [1] (Cpd A 50 mg/kg/day bid ip) amounted to 7%.

In assay [2], `CCN(CC)CCNC(=O)c1ccc(NC(C)=O)cc1` [4-Acetamido-N-[2-(diethylamino)ethyl]benzamide hydrochloride] displayed an inhibition at 1000 µM of 56%.

As a reminder, the inhibition is the percentage by which the read-out fell short of the control.
